According to PMC5224920, “Assessing the mechanism and therapeutic potential of modulators of the human Mediator complex-associated protein kinases” (eLife, 2016):

What was measured:
p-STAT1^SER727 = assay: p-STAT1 SER727 in rat spleen in toleration study; format: in vivo; settings: 6 hr post-treatment, all doses tested
Excerpt: Our aim was to determine if there was a therapeutic window for the compounds, using PK/PD and efficacy data determined in our mouse models as a guide. Following daily doses of compound 3 or 4 for 14 days in rats we detected significant, adverse alterations in multiple organ systems and tissues (Table 1). […] Other adverse pathomorphological findings included necrotic and apoptotic cell lesions in the exocrine pancreas, gastrointestinal mucosa (stomach and duodenum), male reproductive tract (Figure 7), mammary gland, skin (hair follicle), heart (valvular interstitial cells) and lymphatic tissues (thymus, spleen, lymph nodes). Proliferative lesions were found in the lungs (bronchiolar epithelium and smooth muscle cells), liver (bile ducts and smooth muscle cells of hepatic arteries), thymus (epithelium free areas), mammary gland, male reproductive system and heart (valvular interstitial cells) (Table 1).
Figure 7. Examples of degenerative and proliferative lesions in rats treated with CDK8/19 ligands 3 or 4. (A) Intact proliferative zone in the bone growth plate of a control rat. (B) Dysplastic proliferative zone, showing disturbance of regular endochondrial ossification, from a rat treated with 20 mg/kg 3. Scale bar in A and B = 100 µm. (C) Intact epididymides, with epididymal cells, isolated from a control rat. […]

protein kinases = assay: Kinase selectivity panel at 1 µM; format: biochemical; settings: 1µM test compound
[1] = test system: mouse KS483 osteoprogenitor cells; assay: Bone formation assay in KS483 osteoprogenitor cells (PINP, calcium); format: cell-based; settings: 13 d
Procedure: Bone formation assays were conducted by Pharmatest (Finland) in mouse KS483 osteoprogenitor cells cultured for 13 d with LGK974 or 3. The amount of PINP secreted into the culture medium, and calcium deposition, were measured by ELISA (Roche Diagnostics, UK).

[2] = test system: colorectal PDX tumor models; assay: Colorectal cancer PDX in vivo therapy; design: species or system human; settings: six colorectal PDX models; p<0.0001
Excerpt: To follow up our standard xenograft experiments, we next tested compound activity in human patient-derived tumor xenograft models (PDXs). Firstly, we determined if our compounds were active in in vitro soft agar clonogenic assays, using cells derived from 89 distinct PDX models from different tissue types. In this assay, colony growth was inhibited, but only by up to 50%, in one-third of PDX cell cultures treated with tool compound 2 (Figure 3A–B). Six of the more sensitive colorectal PDX tumor models were selected for in vivo monotherapy either with the lead compound 3 alone, or combined with a standard of care drug (irinotecan or oxaliplatin). […] Importantly, the combination of 3 with standard of care therapies was only of statistically significant benefit in one colorectal tumor model, CFX 1034 (p<0.001; Figure 3C and Figure 3—figure supplement 1).
PDX experiments were conducted at Oncotest (Germany).

CDK19 = target: T1, CDK19 (Homo sapiens, UniProt Q9BWU1); assay: CDK19 reporter displacement assay; format: binding
T1 construct: purchased Proteros Biostructures GmbH (Germany), assay service
T1 sequence (Q9BWU1 whole entry): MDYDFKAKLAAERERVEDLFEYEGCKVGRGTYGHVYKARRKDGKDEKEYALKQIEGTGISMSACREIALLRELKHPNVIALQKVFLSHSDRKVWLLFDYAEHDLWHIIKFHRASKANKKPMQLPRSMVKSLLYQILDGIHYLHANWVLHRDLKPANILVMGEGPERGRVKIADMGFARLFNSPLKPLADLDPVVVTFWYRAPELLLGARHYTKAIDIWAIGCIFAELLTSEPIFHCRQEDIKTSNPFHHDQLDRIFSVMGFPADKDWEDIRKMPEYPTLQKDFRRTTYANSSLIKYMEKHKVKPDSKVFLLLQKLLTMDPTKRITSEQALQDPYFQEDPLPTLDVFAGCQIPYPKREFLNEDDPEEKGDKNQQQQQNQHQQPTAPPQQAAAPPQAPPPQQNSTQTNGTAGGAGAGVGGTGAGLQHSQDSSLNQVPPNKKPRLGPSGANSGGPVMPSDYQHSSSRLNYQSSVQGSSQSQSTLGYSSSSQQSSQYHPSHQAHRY
T1 sequence (P24863 whole entry partner): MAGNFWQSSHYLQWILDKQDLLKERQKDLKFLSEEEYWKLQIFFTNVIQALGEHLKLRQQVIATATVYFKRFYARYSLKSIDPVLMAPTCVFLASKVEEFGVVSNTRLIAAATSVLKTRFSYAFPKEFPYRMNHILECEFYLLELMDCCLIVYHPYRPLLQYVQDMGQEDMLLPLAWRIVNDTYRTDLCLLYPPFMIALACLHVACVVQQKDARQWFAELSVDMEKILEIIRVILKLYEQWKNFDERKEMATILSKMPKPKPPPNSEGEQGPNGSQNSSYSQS

RKO = assay: 14 d colony growth assay, RKO; format: cell-based, human; settings: 350 nM, mean (range), n = 2
LS180 = assay: 14 d colony growth assay, LS180; format: cell-based, human; settings: 350 nM, mean (range), n = 2
SW837 = assay: 14 d colony growth assay, SW837; format: cell-based, human; settings: 350 nM, mean (range), n = 2
LS513 = assay: 14 d colony growth assay, LS513; format: cell-based, human; settings: 350 nM, mean (range), n = 2
7dF3 = 7dF3 inducible WNT-pathway luciferase reporter; settings: 7dF3, read-out: 7dF3 IC50
[3] = test system: p-STAT1^SER727 in LS1034 colorectal cancer xenografts; assay: p-STAT1 SER727 level in LS1034 xenografts (pharmacodynamics); format: in vivo, human; settings: 2 hr post-treatment
HT29 = assay: 14 d colony growth assay, HT29; format: cell-based, human; settings: 350 nM, mean (range), n = 2
LS174T = assay: 14 d colony growth assay, LS174T; format: cell-based, human; settings: 350 nM, mean (range), n = 2
SW948 = assay: 14 d colony growth assay, SW948; format: cell-based, human; settings: 350 nM, mean (range), n = 2
Caco-2 permeability = format: in vitro ADME; settings: human

Row | SMILES | Inhibition of STAT1^SER727 phosphorylation (p-STAT1^SER727) | Off-target activities in protein kinase panel (protein kinases) | Calcium deposition [1] | PINP secretion [1] | Response of colorectal PDX tumor models to monotherapy [2] | IC50 (CDK19) | 14 d colony growth (relative to control) (RKO) | 14 d colony growth (relative to control) (LS180) | 14 d colony growth (relative to control) (SW837) | 14 d colony growth (relative to control) (LS513) | IC50 (7dF3) | Decrease of p-STAT1^SER727 [3] | p-STAT1^SER727 value normalised to total STAT1 levels ([3]; n = 4, mean ± s.e.m, control 1719 ± 174) | 14 d colony growth (relative to control) (HT29) | 14 d colony growth (relative to control) (LS174T) | 14 d colony growth (relative to control) (SW948) | efflux ratio (Caco-2 permeability)
1 | Cn1ncc2cc(-c3cnc(N)c(Cl)c3N3CCC4(CCNC4=O)CC3)ccc21 [CMPD 3] | 80% | No off-target activities were detected | inhibited in a concentration-dependent manner | stimulated PINP secretion at low concentrations and inhibited PINP secretion at higher concentrations | Only two of these colorectal cancer PDX tumors models, CFX 883 and CFX 1753, responded |  |  |  |  |  |  |  |  |  |  |  | 
2 | Cc1n[nH]c2ncc(C(=O)N3CCC[C@H]3c3ccc(Cl)cc3)cc12 [CMPD 4] |  |  |  |  |  | 3.8 ± 0.4 nM | 0.98 (0.07) | 0.13 (0.03) | 0.54 (0.03) | 0.04 (0.01) | 5.3 ± 2 nM | 58% | 719 ± 46 | 0.43 (0.01) | 0.36 (0.01) | 0.13 (0.02) | 1.49
